For data set [1], the system named is human monocytes (U-937 ATCC CRL-1593.2). Briefly: Cytotoxic activity, MTT method. It is filed as cell-based. To be noted: 72 h. The procedure:
(§1) Cytotoxicity of the compounds was evaluated on human monocytes (U-937 ATCC CRL-1593.2) in an exponential growth phase and adjusted at 1 × 10^5 cells/mL in RPMI-1640 enriched with 10% fetal bovine serum (FBS). One hundred microliters of cell suspension were dispensed in each well of a 96-wells microplate, and then 100 μL of 200-50-12.5 and 3.125 μg/mL concentration of each compound or standard drug (amphotericin B) were added dissolved in PBS with 0.5% DMSO. Cell exposed to compounds or standard drugs were incubated 72 h at 37 °C and 5% of CO2. Cytotoxic activity of each compound was determined according to the effect on the cell viability by the MTT microenzymatic method in which 3-(4,5-dimethylthiazol-2-yl)-2,5-diphenyltetrazolium bromide is reduced to a purple formazan product by mitochondrial enzyme succinate dehydrogenase. Thus, 10 μL/well of MTT solution (5 mg/mL) was added to each well of exposed and unexposed cells, and plates were incubated at 37 °C, 5% CO2 during 3 h. The reaction was stopped by adding 100 μL/well of isopropanol with 50% and 10% of SDS (sodium dodecyl sulfate). The concentration of formazan was determined spectrophotometrically at 570 nm (Varioskan, Thermo, Waltham, MA, USA) and intensity of color (absorbance) was registered as O.D. Cells exposed to control drug (amphotericin B) were used as control for toxicity (positive control) while cell incubated in the absence of any compound or drug were used as control for viability (negative control). Non-specific absorbance was corrected by subtracting absorbance (O.D) of the blank. Determinations were done by triplicate in at least two independent experiments.
(§2) Cytotoxicity was determined according to viability and mortality percentages obtained for each experimental condition (synthesized compounds, amphotericin B, and culture medium). Results were expressed as the mean lethal concentrations (LC50), the concentration necessary to kill 50% of cells, calculated by the parametric method of linear regression that permits doses-response analysis (Probit analysis).
(§3) Initially, viability percentages were calculated by Equation (1), where the O.D of control well, corresponds to 100% of viability:(1) % Viability=(O.D. exposed cells/O.D. unexposed cells)×100
(§4) Then, the percentage of cell growth inhibition was calculated using Equation (2):(2) % Inhibition =100−(% Viability)
(§5) The toxicity was defined according to LC50 values, using the follow scale: Toxic; LC50 < 100 μM; moderately toxic; LC50 > 100 μM and < 200 μM and potentially nontoxic; LC50 > 200 μM.
(Formazan colour is commonly taken as a measure of viable cells.)

The subject of data set [2] is intracellular amastigotes of L. panamensis (MHOM/CO/87/UA140-EGFP strain). Briefly: In vitro antileishmanial activity on intracellular amastigotes (GFP, flow cytometry). It is filed as cell-based, Leishmania (V) panamensis. Conditions: for EC50: intracellular amastigotes in U-937 cells, 72 h exposure, mean ± SD, Probit; for SI (Selectivity Index = LC50/EC50): LC50 U-937 / EC50 L. panamensis amastigotes. The procedure:
Antileishmanial activity of compounds was determined according to the ability of the compound to reduce the infection by L. panamensis parasites. For this, the antileishmanial activity was tested on intracellular amastigotes of L. panamensis transfected with the green fluorescent protein gene (MHOM/CO/87/UA140-EGFP strain). Briefly, U-937 human cells at a density of 3 × 10^5 cells/mL in RPMI 1640 and 0.1 μg/mL of PMA (phorbol-12-myristate-13-acetate) were dispensed on 24-wells microplate and then infected with stationary phase growing L. panamensis promastigotes in 15:1 parasites per cell ratio. Plates were incubated at 34 °C and 5% CO2 for 3 h, and then cells were washed twice with phosphate buffer solution (PBS) to eliminate not internalized parasites. Fresh RPMI-1640 was added into each well (1 mL), and plates were incubated again. After 24 h of infection, the RPMI-1640 medium was replaced by fresh culture medium containing each compound at four serial dilutions (50, 12.5, 3.125 and 0.78 μg/mL) and plates were then incubated at 37 °C and 5% CO2 during 72 h, then, cells were removed from the bottom plate with 100 µL of EDTA/trypsin (250 mg) solution. The cells were centrifuged at 1100 rpm during 10 min at 4 °C, the supernatant was discarded, and cells were washed with 1 mL of cold PBS and centrifuged at 1100 rpm for 10 min at 4 °C. Cells were washed two times employing PBS, as previously, and after the last wash, the supernatant was discarded, and cells were suspended in 500 μL of PBS.
Cells were analyzed by flow cytometry employing a flow cytometer (FC 500MPL, Cytomics, Beckman Coulter. Pasadena, CA, USA) reading at 488 nm (exciting) and 525 nm (emitting) over an argon laser and counting 10,000 events. Infected cells were determined according to the events for green fluorescence (parasites). All determinations for each compound and standard drug were carried out by triplicate, in two experiments. Infected cells exposed to control drug (amphotericin B) were used as the control for antileishmanial activity (positive control), while infected cells incubated in the absence of any compound or drug were used as another control for infection (negative control). Nonspecific fluorescence was corrected by subtracting the fluorescence of unstained cells. Determinations were done by triplicate in at least two independent experiments.
The antileishmanial activity was determined according to the reduction of the percentage of fluorescent parasites determined according to the median fluorescence intensity (MFI) obtained for each experimental condition by cytometry. The parasite values for each concentration of compound were calculated by Equation (3), where the % of parasites in control well, corresponds to 100% of parasites:(3) % Parasites=(MFI exposed parasites/MFI unexposed parasites)×100
Then, the inhibition percentage was calculated with Equation (4):(4) % Inhibitors of Parasites=100−(% Parasites)
Results of antileishmanial activities were expressed as the median effective concentrations (EC50) measured by Probit method.
A general note: Flow cytometry measures light scatter and fluorescence of single cells or particles in a stream.

Data set [3] is described as follows: Cytotoxic activity, MTT method. It is filed as cell-based. To be noted: human, LC50. The procedure: as §1, §2, §3, §4, §5
Where [4] appears, read: Leishmania panamensis, U-937, 72 h.

Broadly, the EC50 is the midpoint of the concentration-response curve. Higher therefore signals weaker potency.

Read-outs that look alike come from different tables or passages of the source. Where only a bound is given, the exact number is not on record here.

In the case of “4-(2-Carbamoylhydrazineylidene)thiochromane-2-carboxylic acid [Compound 26c]”, in data set [1] (U-937 cells, MTT, mean ± SD, Probit, read-out: LC50 (the source's name)), the CC50 turned out to be 1160 ± 340 µM. The compound further gave an EC50 in data set [2] of over 189 µM.

`CCCCOC(=O)C1CC(=O)c2ccccc2S1` (stereo not drawn) [22b (-), butyl 4-oxothiochromane-2-carboxylates] returned a CC50 in data set [1] (human) of 28.8 ± 4.5 µM. In data set [2], the “SI (Selectivity Index = LC50/EC50)” value is 0.5 and the response was half-maximal at 53 ± 10.8 µM (EC50).

In data set [1] (human), `O=C1CC(C(=O)O)Sc2ccccc21` (stereo not drawn) [20a (-), 4-oxo-thiochroman-2-carboxylic acid] returned a CC50 of 33 ± 1.5 µM. In addition, in data set [2], the “SI (Selectivity Index = LC50/EC50)” value came out at 0.6 and the EC50 amounted to 53.5 ± 10.8 µM.

In data set [3], `O=CC1=Cc2ccccc2SC1c1ccc(F)cc1` (centres unmarked) [Compound 13b, 2-(4-Fluorophenyl)-2H-thiochromene-3-carbaldehyde] displayed a CC50 at 72 h of 9.6 ± 0.4 µM. In data set [2], the “SI (Selectivity Index = LC50/EC50)” value is on record as 0.3. This compound came in with a concentration for a half-maximal effect (EC50) in data set [2] (setting [4]) of 29.7 ± 4.4 µM.

In data set [3], `COc1ccc2c(c1)SC(C(=O)O)CC2=O` (centres unmarked) [Compound 20d, 7-Methoxy-4-oxo-thiochromane-2-carboxylic acid] yielded a CC50 at 72 h of 90.4 ± 16.4 µM. Besides, the “SI (Selectivity Index = LC50/EC50)” value in data set [2] turned out to be 0.3. Besides, the EC50 in data set [2] (setting [4]) amounted to 277 ± 101 µM.

The compound `O=C1CC(C(=O)O)Sc2ccc(F)cc21` (centres unmarked) [Compound 20b, 6-Fluoro-4-oxo-thiochromane-2-carboxylic acid] showed a CC50 at 72 h in data set [3] of 210 ± 78.7 µM. Moreover, in data set [2], the “SI (Selectivity Index = LC50/EC50)” value was found to be 0.1. In addition, the EC50 in data set [2] (setting [4]) came out at 3520 ± 3010 µM.

Compound `CCOC(=O)C1CC(=O)c2ccccc2S1` (centres unmarked) [Compound 22a, Ethyl 4-oxo-thiochromane-2-carboxylate] had a CC50 at 72 h in data set [3] of 211.1 ± 0.7 µM. In data set [2], the “SI (Selectivity Index = LC50/EC50)” value was under 3.1. This compound also displayed an EC50 in data set [2] (setting [4]) of over 68.5 µM.

On to `CCOC(=O)C1CC(=NNC(=O)c2ccccc2)c2ccccc2S1` (centres unmarked) [Compound 26a, Ethyl 4-(2-benzoylhydrazineylidene)thiochromane-2-carboxylate], for which the CC50 at 72 h in data set [3] is 15.4 ± 0.2 µM. In addition, the “SI (Selectivity Index = LC50/EC50)” value in data set [2] worked out at 0.5. Moreover, in data set [2] (setting [4]), the EC50 came to 28.5 ± 6.3 µM.

In data set [3], `O=C1CC(C(=O)O)Sc2ccccc21` (stereo not drawn) [20a (+), 4-oxo-thiochroman-2-carboxylic acid] had a CC50 at 72 h of over 48.1 µM. In addition, in data set [2], the “SI (Selectivity Index = LC50/EC50)” value is over 0.1 and the EC50 stood at 505 ± 133 µM.

`CCOC(=O)C1CC(=NNC(=O)c2ccncc2)c2ccccc2S1` (centres unmarked) [Compound 26b, Ethyl 4-(2-isonicotinoylhydrazineylidene)thiochromane-2-carboxylate]: the CC50 at 72 h in data set [3] amounted to 15.2 ± 0.2 µM. Besides, the “SI (Selectivity Index = LC50/EC50)” value in data set [2] was found to be 0.3. Besides, in data set [2] (setting [4]), the response was half-maximal at 53.2 ± 41 µM (EC50).

With `CCCCOC(=O)C1CC(=O)c2ccccc2S1` (stereo not drawn) [22b (+), butyl 4-oxothiochromane-2-carboxylates], the CC50 in data set [1] (human) is 74.9 ± 52.8 µM. For the same compound, in data set [2], the “SI (Selectivity Index = LC50/EC50)” value stood at 0.2 and it took 368 ± 24.2 µM to reach a half-maximal effect (EC50).
